Laboratory results: ChEMBL document CHEMBL1150237, “Synthesis of indoleamine 2,3-dioxygenase inhibitory analogues of the sponge alkaloid exiguamine A” (J Med Chem, 2008)
The source made the active and inactive calls. The calls are words filed in the database; no cut-off is given here.

Columns and labels:
[1] = biological target: T1, Indoleamine 2,3-dioxygenase 1 (Homo sapiens, UniProt P14902); test: Inhibition of human recombinant indoleamine 2,3-dioxygenase
Target sequence in this assay (P14902 whole entry): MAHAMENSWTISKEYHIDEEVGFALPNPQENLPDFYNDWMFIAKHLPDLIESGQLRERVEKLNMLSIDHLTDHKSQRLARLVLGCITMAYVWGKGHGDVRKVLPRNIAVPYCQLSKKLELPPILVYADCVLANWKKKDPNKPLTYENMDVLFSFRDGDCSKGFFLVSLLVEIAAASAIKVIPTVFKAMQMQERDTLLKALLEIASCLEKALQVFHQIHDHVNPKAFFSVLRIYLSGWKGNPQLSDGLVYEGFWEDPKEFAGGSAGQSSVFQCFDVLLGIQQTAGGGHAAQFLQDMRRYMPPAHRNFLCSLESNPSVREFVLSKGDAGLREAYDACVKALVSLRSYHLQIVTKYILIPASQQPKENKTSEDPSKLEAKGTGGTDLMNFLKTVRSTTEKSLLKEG

[2] = biological target: T1, Indoleamine 2,3-dioxygenase 1; test: Inhibition of human recombinant indoleamine 2,3-dioxygenase at =< 500000 nM
Target sequence in this assay (P14902 whole entry, looked up): as the sequence (P14902 whole entry) above

Ki [1] [nM] | Activity [2] | Structure (SMILES)
1490 |  | O=C(NCCc1c[nH]c2c1C(=O)C=CC2=O)OCc1ccccc1
 | inactive | Oc1cccc2[nH]ccc12
190 |  | O=C1C=CC(=O)c2[nH]ccc21
 | inactive | NCCc1c[nH]c2c1C(=O)c1c(c(-c3ccccc3)c3ccccc3c1-c1ccccc1)C2=O
